Test [1] deals with UTP-stimulated Ca2+ response in HT-29 cells. Briefly: Ca FLIPR TETRA assay, ANTAGONIST mode, stimulation with 0.6 μM UTP. Format: cell-based, human. The conditions noted are these: Homo sapiens; HT-29 cells, antagonist mode, stimulation with 0.6 μM UTP. A digest of the protocol:
(§1)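 Inhibition of activator-evoked Ca2+ flux was recorded on FLIPR Tetra in HT-29 cells after 30 min compound exposure at r.t. A prior read checked whether compounds alone triggered Ca2+ release.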

The test system of test [2] is Thrombin-stimulated Ca2+ response in HT-29 cells. Briefly: Ca FLIPR TETRA assay, ANTAGONIST mode, stimulation with 1 U/mL Thrombin. The class given is cell-based, human. The conditions noted are these: Homo sapiens; HT-29 cells, antagonist mode, stimulation with 1 U/mL Thrombin. A digest of the protocol: as §1
Test [3] deals with T1, PAR2 (HT-29 cells, SLIGKV activation) (Homo sapiens, UniProt P55085).
T1 construct: host or cells: HT-29 cells
T1 sequence (P55085 26-397): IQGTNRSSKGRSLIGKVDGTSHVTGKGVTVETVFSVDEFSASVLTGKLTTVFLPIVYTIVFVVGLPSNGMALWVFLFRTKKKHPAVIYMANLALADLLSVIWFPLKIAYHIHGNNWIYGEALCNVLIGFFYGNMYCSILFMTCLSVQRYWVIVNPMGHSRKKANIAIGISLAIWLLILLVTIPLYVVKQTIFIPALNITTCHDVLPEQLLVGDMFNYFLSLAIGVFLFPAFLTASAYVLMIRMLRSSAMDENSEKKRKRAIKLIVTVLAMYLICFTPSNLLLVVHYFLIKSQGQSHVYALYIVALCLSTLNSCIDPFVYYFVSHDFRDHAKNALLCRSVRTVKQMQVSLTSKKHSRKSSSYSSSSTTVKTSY
Briefly: Ca FLIPR TETRA assay, ANTAGONIST mode, stimulation with 8 μM SLIGKV. Format: cell-based. As to conditions: HT-29 cells, antagonist mode, stimulation with 8 μM SLIGKV. A digest of the protocol: as §1

Test [4] deals with T2, PAR2 (HT-29 cells, trypsin activation) (Homo sapiens, UniProt P55085).
T2 construct: host or cells: HT-29 cells
T2 sequence (P55085 26-397): T1 sequence (P55085 26-397)
Briefly: Ca FLIPR TETRA assay, ANTAGONIST mode, stimulation with 3.1 U/mL trypsin. Format: cell-based. As to conditions: HT-29 cells, antagonist mode, stimulation with 3.1 U/mL trypsin. A digest of the protocol: as §1

Molecules are shown by their SMILES.

Consider `CC(C)(C)c1cc(-c2ccc(Cl)c(F)c2)nn2cc(C(=O)N3CCN(C(=O)c4ccn[nH]4)CC3(C)C)nc12` [Compound I-454], for which the IC50 in test [1] was more than 1000 nM; in test [2] it was more than 1000 nM; in test [3], 0.4 nM; in test [4], 0.7 nM.
For `CC(C)(C)c1cc(-c2ccc(Cl)c(F)c2)nn2cc(C(=O)N3CCN(C(=O)c4ccccn4)CC3(C)C)nc12` [Compound I-455], the IC50 in test [1] is more than 1000 nM; in test [2], more than 1000 nM; in test [3], 0.6 nM; in test [4], 0.9 nM.
On to `CC(C)(C)c1cc(-c2ccc(Cl)c(F)c2)nn2cc(C(=O)N3CCN(C(=O)c4ncccn4)CC3(C)C)nc12` [Compound I-456], for which the IC50 in test [1] was more than 1000 nM; in test [2], more than 1000 nM; in test [3], 0.5 nM; in test [4], 0.7 nM.
`Cc1nnc(C(=O)N2CCN(C(=O)c3cn4nc(-c5ccc(Cl)c(F)c5)cc(C(C)(C)C)c4n3)C(C)(C)C2)o1` [Compound I-457]: the IC50 in test [1] was more than 1000 nM; in test [2] it was more than 1000 nM; in test [3] it was 0.6 nM; in test [4] it was 0.8 nM.
For `CC(C)(C)c1cc(-c2ccc(F)c(Cl)c2)nn2cc(C(=O)N3CCN(C(=O)c4ccccn4)CC3(C)C)nc12` [Compound I-458], the IC50 in test [1] was more than 1000 nM; in test [2], more than 1000 nM; in test [3] it was 1.3 nM; in test [4], 2.1 nM.
Consider `CC(C)(C)c1cc(-c2ccc(F)c(Cl)c2)nn2cc(C(=O)N3CCN(C(=O)c4ccn[nH]4)CC3(C)C)nc12` [Compound I-459], for which the IC50 is more than 1000 nM in test [1], more than 1000 nM in test [2], 1 nM in test [3] and 1.5 nM in test [4].
Regarding `CC(C)(C)c1cc(-c2ccc(F)c(Cl)c2)nn2cc(C(=O)N3CCN(C(=O)[C@H]4C[C@@](C)(O)C4)CC3(C)C)nc12` [Compound I-460], the 50% inhibitory concentration (IC50) was more than 1000 nM in test [1], more than 1000 nM in test [2], 0.5 nM in test [3] and 0.7 nM in test [4].
For the compound `Cc1nnc(C(=O)N2CCN(C(=O)c3cn4nc(C5CCC(F)(F)CC5)cc(C(C)(C)C)c4n3)C(C)(C)C2)o1` [Compound I-461], the IC50 is more than 1000 nM in test [1], more than 1000 nM in test [2], 14.8 nM in test [3] and 39.8 nM in test [4].
As to `CC(C)(C)c1cc(-c2ccc(F)cc2)nn2cc(C(=O)N3CCNC(=O)C34CCCC4)nc12` [Compound I-462, 6-(8-(tert-butyl)-6-(4-fluorophenyl)imidazo[1,2-b]pyridazine-2-carbonyl)-6,9-diazaspiro[4.5]decan-10-one], the IC50 in test [1] was more than 1000 nM; in test [2], more than 1000 nM; in test [3], 2.2 nM; in test [4], 3.7 nM.
`CC(C)(C)c1cc(-c2ccc(C(F)(F)F)cc2)nn2cc(C(=O)N3CCN(C(=O)[C@H]4C[C@@](C)(O)C4)CC3(C)C)nc12` [Compound I-463]: the 50% inhibitory concentration (IC50) in test [1] was more than 1000 nM; in test [2], more than 1000 nM; in test [3] it was 1.8 nM; in test [4], 2.7 nM.
As for `CC(C)(C)c1cc(-c2ccc(F)c(Cl)c2)nn2cc(C(=O)N3CCN(C(=O)c4ncccn4)CC3(C)C)nc12` [Compound I-464], the IC50 in test [1] is more than 1000 nM; in test [2], more than 1000 nM; in test [3], 1.2 nM; in test [4] it was 2.2 nM.
For `Cc1nnc(C(=O)N2CCN(C(=O)c3cn4nc(-c5ccc(F)c(Cl)c5)cc(C(C)(C)C)c4n3)C(C)(C)C2)o1` [Compound I-465], the IC50 was more than 1000 nM in test [1], more than 1000 nM in test [2], 1.8 nM in test [3] and 3.7 nM in test [4].
Turning to `Cc1cc(C(=O)N2CCN(C(=O)c3cn4nc(-c5ccc(F)c(Cl)c5)cc(C(C)(C)C)c4n3)C(C)(C)C2)[nH]n1` [Compound I-466], the IC50 in test [1] is more than 1000 nM; in test [2], more than 1000 nM; in test [3], 0.7 nM; in test [4], 1.9 nM.
For the compound `Cc1ncc(C(=O)N2CCN(C(=O)c3cn4nc(-c5ccc(F)c(Cl)c5)cc(C(C)(C)C)c4n3)C(C)(C)C2)[nH]1` [Compound I-467], the IC50 is more than 1000 nM in test [1], more than 1000 nM in test [2], 0.9 nM in test [3] and 2 nM in test [4].
With `Cc1n[nH]c(C(=O)N2CCN(C(=O)c3cn4nc(-c5ccc(F)c(Cl)c5)cc(C(C)(C)C)c4n3)C(C)(C)C2)n1` [Compound I-468], the IC50 is 2120 nM in test [1], 3240 nM in test [2], 0.7 nM in test [3] and 1.2 nM in test [4].
As for `CC(C)(C)c1cc(-c2ccc(Cl)c(F)c2)nn2cc(C(=O)N3CCN(C(=O)[C@H]4C[C@@](C)(O)C4)CC3(C)C)nc12` [Compound I-469], the IC50 in test [1] stood at 11000 nM; in test [2] it was 8840 nM; in test [3], 0.2 nM; in test [4] it was 0.2 nM.
On to `Cc1cc(-c2cc(C(C)C)c3nc(C(=O)N4CCN(CO)C(=O)C4(C)C)cn3n2)ccc1F` [Compound I-470], for which the IC50 was more than 1000 nM in test [1], more than 1000 nM in test [2], 25.7 nM in test [3] and 31.7 nM in test [4].
`CC(C)(C)c1cc(-c2ccc(F)cc2)nn2cc(C(=O)N3CCN(c4cc[nH]n4)C(=O)C3(C)C)nc12` [Compound I-471]: the IC50 in test [1] is more than 1000 nM; in test [2] it was 905 nM; in test [3] it was 0.8 nM; in test [4], 1.6 nM.
`CC(C)(C)c1cc(-c2ccc(F)cc2F)nn2cc(C(=O)N3CCNC(=O)C3(C)C)nc12` [Compound I-472]: the IC50 is 820 nM in test [1], more than 1000 nM in test [2], 6.2 nM in test [3] and 13 nM in test [4].
In the case of `CC(C)(C)c1cc(-c2ccccc2F)nn2cc(C(=O)N3CCNC(=O)C3(C)C)nc12` [Compound I-473], the IC50 in test [1] was determined as 390 nM; in test [2], 475 nM; in test [3], 15 nM; in test [4] it was 25.5 nM.
In the case of `CC(C)(C)c1cc(C2CCC(F)(F)CC2)nn2cc(C(=O)N3CCN(c4cc[nH]n4)C(=O)C3(C)C)nc12` [Compound I-474], the concentration for half-maximal inhibition (IC50) in test [1] is more than 1000 nM; in test [2], more than 1000 nM; in test [3], 2.4 nM; in test [4] it was 20 nM.
For `Cc1n[nH]c(C(=O)N2CCN(C(=O)c3cn4nc(-c5ccc(F)cc5)cc(C(C)C)c4n3)C(C)(C)C2)n1` [Compound I-475], the IC50 in test [1] came out at 13700 nM; in test [2], 10300 nM; in test [3], 3.8 nM; in test [4], 7.1 nM.
For `CC(C)c1cc(-c2ccc(F)c(C3CC3)c2)nn2cc(C(=O)N3CCNC(=O)C3(C)C)nc12` [Compound I-476] the same measures were more than 1000 nM, more than 1000 nM, 660 nM and 965 nM.
`CC(C)c1cc(-c2ccc(F)cc2F)nn2cc(C(=O)N3CCNC(=O)C3(C)C)nc12` [Compound I-477]: the IC50 was more than 1000 nM in test [1], more than 1000 nM in test [2], 43 nM in test [3] and 93 nM in test [4].
In the case of `CC(C)c1cc(-c2ccccc2F)nn2cc(C(=O)N3CCNC(=O)C3(C)C)nc12` [Compound I-479], the IC50 is more than 1000 nM in test [1], more than 1000 nM in test [2], 155 nM in test [3] and 250 nM in test [4].
As for `CC(C)c1cc(-c2cccc(F)c2)nn2cc(C(=O)N3CCNC(=O)C3(C)C)nc12` [Compound I-480], the IC50 in test [1] was more than 1000 nM; in test [2], more than 1000 nM; in test [3] it was 20 nM; in test [4] it was 60 nM.
As for `Cc1nc(C(=O)N2CCN(C(=O)c3cn4nc(-c5ccc(F)cc5)cc(C(C)(C)C)c4n3)C(C)(C)C2)n(COP(=O)(O)O)n1` [Compound I-481], the IC50 is more than 1000 nM in test [1], more than 1000 nM in test [2], 47.2 nM in test [3] and 44.5 nM in test [4].
For `CC(C)c1cc(-c2ccc(F)c(Cl)c2)nn2cc(C(=O)N3CCN(C(=O)[C@H]4C[C@@](C)(O)C4)CC3(C)C)nc12` [Compound I-482], the IC50 in test [1] came out at 6350 nM; in test [2], 2700 nM; in test [3], 2.7 nM; in test [4], 2.7 nM.
For `Cc1nc(C(=O)N2CCN(C(=O)c3cn4nc(-c5ccc(F)c(Cl)c5)cc(C(C)C)c4n3)C(C)(C)C2)n[nH]1` [Compound I-483], the IC50 in test [1] worked out at 6800 nM; in test [2] it was 6900 nM; in test [3], 2.5 nM; in test [4], 4.3 nM.
For `Cc1nc(C(=O)N2CCN(C(=O)c3cn4nc(-c5ccc(F)cc5)cc(C(C)(C)C)c4n3)C(C)(C)C2)nn1COP(=O)(O)O` [Compound I-485], in that order: more than 1000 nM, more than 1000 nM, 97 nM and 235 nM.

What is called IC50 is the point on the concentration scale where inhibition reaches its midpoint.

Source of the values: patent US20190119282A1, “IMIDAZOPYRIDAZINES USEFUL AS INHIBITORS OF THE PAR-2 SIGNALING PATHWAY” (Vertex Pharmaceuticals Incorporated, priority 2013, published 2019).
